What was measured:
NRF2 = assay: Measurement 2 of Nrf2 activating action (reporter assay) in HCE-T/ARE-Luc cells; type: cell-based; conditions: 50% activation concentration, culture for 24 hours
Experimental: The NRF2 activating action of the compounds on cells was measured by a reporter gene assay. pGL4.37[luc2P/ARE/Hygro](Promega) was introduced into HCE-T cells using FuGENE HD. Cells that acquired drug resistance as a result of transduction were screened by culture in the presence of 50 μg/mL hygromycin, and a clone strain, HCE-T/ARE-Luc, was established.
HCE-T/ARE-Luc was cultured using DMEM/F12, 10 ng/mL hEGF, 5 μg/mL insulin, and 5% FBS. Phenol red-free DMEM/F12 was used as the assay medium.
HCE-T/ARE-Luc was seeded in a 96-well polystyrene microplate (FALCON) with 10000 cells per well. The cells were incubated in a CO: incubator at 37° C. for 16 hours to allow for cell adhesion. The test substance was dissolved in dimethylsulfoxide to prepare a solution at a concentration 1000 times higher than the test concentration. The test substance diluted 1000-fold in the assay medium was added, followed by culture for 24 hours. When measuring the activity of the reporter, the medium containing the test substance was removed, and then a new medium and a substrate of ONE-GloEX Luciferase Assay System (Promega) were added. The plate was shaken for 1 minute and then allowed to stand at ordinary temperature for 10 minutes, and luminescence was detected using the GloMax Discover System.
The 50% activation concentration of each test substance was calculated by creating a calibration curve between two concentrations across the luminescence intensity of 50%.

[1] = Measurement of metabolic stability in human liver microsomes; type: in vitro ADME; conditions: residual ratio of test compound after 30 minutes at 37° C. with human liver microsome, LC/MS/MS
How it was run: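 Compound was diluted to 200 nmol/L in 6.5 mmol/L NADPH solution (pre-mix levels) and incubated with an equal volume of 0.2 mg protein/mL pooled mixed-gender human liver microsomes for 30 min at 37° C, then quenched with methanol. LC/MS/MS peak areas gave % remaining versus a sample quenched before microsome addition.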

Structure (SMILES) | EC50 (NRF2) | Metabolic stability* [1]
CC[C@@H]1CN(Cc2cc(C(c3cc(OC)c(C(C)=O)s3)C(C)(C)C(=O)O)ccc2C)S(=O)(=O)c2ccccc2O1 (stereo partly drawn) [Compound 4, 3-(5-acetyl-4-methoxythiophen-2-yl)-3-(3-{[(R)-4-ethyl-1,1-dioxide-3,4-dihydro-2H-benzo[b][1,4,5]oxathiazepin-2-yl]methyl}-4-methylphenyl)-2,2-dimethylpropanoic acid] | 7.17 nM | 48%
CC[C@@H]1CN(Cc2cc(C(c3ccc(C(C)=O)s3)C(C)C(=O)O)ccc2C)S(=O)(=O)c2ccccc2O1 (stereo partly drawn) [Compound 1, 3-(5-acetylthiophen-2-yl)-3-(3-{[(R)-4-ethyl-1,1-dioxide-3,4-dihydro-2H-benzo[b][1,4,5]oxathiazepin-2-yl]methyl}-4-methylphenyl)-2-methylpropanoic acid] | 9.19 nM | 37%
CC[C@@H]1CN(Cc2cc(C(c3cc(C(C)=O)cs3)C(C)C(=O)O)ccc2C)S(=O)(=O)c2ccccc2O1 (stereo partly drawn) [Compound 3, 3-(4-acetylthiophen-2-yl)-3-(3-{[(R)-4-ethyl-1,1-dioxide-3,4-dihydro-2H-benzo[b][1,4,5]oxathiazepin-2-yl]methyl}-4-methylphenyl)-2-methylpropanoic acid] | 6.81 nM | 51%
CC[C@@H]1CN(Cc2cc(C(c3cc(C)c(C(C)=O)s3)C(C)C(=O)O)ccc2C)S(=O)(=O)c2ccccc2O1 (stereo partly drawn) [Compound 2, 3-(5-acetyl-4-methylthiophen-2-yl)-3-(3-{[(R)-4-ethyl-1,1-dioxide-3,4-dihydro-2H-benzo[b][1,4,5]oxathiazepin-2-yl]methyl}-4-methylphenyl)-2-methylpropanoic acid] | 9 nM | 21%

The remaining lines, values ahead:

EC50 (NRF2) | Metabolic stability* [1] | Structure (SMILES)
7.47 nM | 50% | CC[C@@H]1CN(Cc2cc(C(c3cc(OC)c(C(C)=O)s3)C(C)C(=O)O)ccc2C)S(=O)(=O)c2cnccc2O1 (stereo partly drawn) [Compound 51, 3-(5-acetyl-4-methoxythiophen-2-yl)-3-(3-{[(R)-4-ethyl-1,1-dioxide-3,4-dihydro-2H-pyrido[4,3-b][1,4,5]oxathiazepin-2-yl]methyl}-4-methylphenyl)-2-methylpropanoic acid]
6.71 nM | 2% | CC(=O)c1ccc(C(c2ccc(C)c(CN3CC(CCOCc4ccccc4)Oc4ccccc4S3(=O)=O)c2)C(C)C(=O)O)s1 (centres unmarked) [Compound 13, 3-(5-acetylthiophen-2-yl)-3-[3-({4-[2-(benzyloxy)ethyl]-1,1-dioxide-3,4-dihydro-2H-benzo[b][1,4,5]oxathiazepin-2-yl}methyl)-4-methylphenyl]-2-methylpropanoic acid]
2.98 nM | 48% | CC[C@@H]1CN(Cc2cc(C(c3cc(OC)c(C(C)=O)s3)C(C)(C)C(=O)O)ccc2C)S(=O)(=O)c2cnccc2O1 (stereo partly drawn) [Compound 50, 3-(5-acetyl-4-methoxythiophen-2-yl)-3-(3-{[(R)-4-ethyl-1,1-dioxide-3,4-dihydro-2H-pyrido[4,3-b][1,4,5]oxathiazepin-2-yl]methyl}-4-methylphenyl)-2,2-dimethylpropanoic acid]

— patent publication US12552757B2, “NRF2-activating compound” (SENJU PHARMACEUTICAL CO., LTD., priority 2019, dated 2026)
